Experimental data from patent US20030044776A1, “COMPOSITIONS AND METHODS FOR IDENTIFYING AGENTS THAT ALTER MITOCHONDRIAL PERMEABILITY TRANSITION PORES” (priority 1998, published 2003).

Experiments:
Type in all cases: cell-based, human
[1] = tested on: caspase-3 activity in AD cybrids or MixCon cybrids; assay: Caspase-3 activation (DEVD-AMC cleavage) following ionomycin induced MPT; details: FIG. 11
Description: In 96-well microculture plates, cultured human cybrid neuroblastoma SH-SY5Y cells constructed using mitochondria from an individual known to have AD, or from a normal control subject, were cultured in HBSS followed by the addition of atractyloside (as described in Example 5) or ionomycin (as described in Example 1). Control cultures, to which neither atractyloside nor ionomycin were added, were prepared in parallel. Membrane potential was monitored from about 15 minutes (which was, in most cases, sufficient for purposes of the assay) to about 45 to 60 minutes, wherein “about” indicates ±10%.
Caspase-3 activity was assessed by diluting the fluorogenic peptide substrate acetyl-Asp-Glu-Val-Asp (SEQ ID NO:2) conjugated to AMC (7-amino-4-methylcoumarin; the synthetic peptide is referred to as DEVD-AMC; CalBiochem-Novabiochem Corp., San Diego, Calif.; see Walker et al., 1994 Cell 78:343, and Thornberry et al., 1992 Nature 356:768) from a DMSO stock solution into culture media to a final concentration of 20 μM for uptake by cells. Substrate cleavage liberating the AMC fluorophore was measured continuously using a Cytofluor fluorimetric plate reader (model #2350, Millipore Corp., Bedford, Mass.; excitation wavelength=435 nm; emission wavelength=460 nm). Data are presented as ΔRFU (relative fluorescence units). […]

[2] = tested on: SH-SY5Y cybrid cells (control and AD); assay: Mitochondrial permeability transition (MPT) assay using DASPMI fluorescence loss rate after ionomycin induction
Description: The fluorescent mitochondria-selective dye 2-,4-dimethylaminostyryl-N-methylpyridinium (DASPMI, Molecular Probes, Inc., Eugene, Oreg.) is dissolved in Hank's balanced salt solution (HBSS; Life Technologies, Rockville, Md.) at 1 mM and diluted to 25 μM in warm HBSS. […]
Fluorescence of each microculture in the 96-well plate is quantified immediately using a Molecular Devices fmax fluorimetric plate reader (Molecular Devices Corp., Sunnyvale, Calif.; excitation wavelength=485 nm; emission wavelength=590 nm) and zero-time (t0) fluorescence is recorded. […] Fluorescence decay of DASPMI-loaded, ionomycin induced cells is monitored as a function of time from 0-500 seconds following addition of ionomycin. The maximum negative slope (V-max) is calculated from a subset of the data using analysis software provided by the fluorimetric plate reader manufacturer. In addition, the initial and final signal intensities are determined and the effects of candidate agents that may affect MPT on the rate of signal decay are quantified.
The method described in Example 1 was employed to monitor MPT induced by the calcium ionophore ionomycin and inhibition thereof by cyclosporin. […] Fluorescence detection and monitoring of fluorescence decay as a rate loss function were as described in Example 1. […]

[3] = tested on: SH-SY5Y neuroblastoma cells; assay: Apoptosis morphology (membrane blebbing) by light microscopy after ionomycin induced MPT; details: four hours
Description: Control SH-SY5Y cells, and control (normal) and AD cybrids produced from SH-SY5Y cells were as described above, and were induced to undergo MPT as described in Example 1. Some cultured cells were pretreated with 1-phenylbiguanide (I) as described in Example 8. Briefly, SH-SY5Y neuroblastoma cells (1×10^5 cells) were rinsed with one volume 1×PBS, and then treated with 10 μM ionomycin (Calbiochem, San Diego, Calif.) in DMEM supplemented with 10% fetal calf serum (FCS) (Gibco, Life Technologies, Grand Island, N.Y.) for 10 minutes, followed by two washes with DMEM (10% FCS). […]
The results using parental SH-SY5Y cells are illustrated in FIG. 10.

N=C(N)NC(=N)Nc1ccccc1 [1-phenylbiguanide]
induction of caspase-3 activity after ionomycin induced MPT ([1]; pretreated with (I) as in Example 8 (2 mM, 20 min), MPT induced by 25 μM ionomycin): inhibited
rate of loss of mitochondrial membrane potential (DASPMI loss rate) ([2]; 2 mM 1-phenylbiguanide for 20 min prior to MPT induction with 1 μM ionomycin, two AD and one control cybrid cell lines, p<0.001, FIG. 9): decreased the rate of loss of mitochondrial membrane potential
apoptosis morphology, % of cells ([3]; parental SH-SY5Y cells pretreated with (I), then 10 μM ionomycin, FIG. 10C): 10-15%

C[C@H](CCC(=O)O)C[C@H](C)C[C@H](C)C(=O)/C=C(\O)[C@H](C)C[C@H](C)C/C=C/[C@@H](C)[C@@H](O)[C@@H](C)[C@@H](O)C[C@@H]1CC[C@@](C)([C@H]2CC[C@@](C)([C@@H](C)O)O2)O1 [ionomycin]
caspase-3 activity induced by MPT induction ([1]; 25 μM ionomycin): induces significant caspase-3 activity
cells exhibiting membrane blebbing ([3]; parental SH-SY5Y cells, 10 μM ionomycin, untreated cells <5%, FIG. 10B): approximately 80%

N.N.N.N.N.N.N.N.N.N.N.N.N.N.[Cl-].[Cl-].[Cl-].[Cl-].[Cl-].[Cl-].[O-2].[O-2].[Ru+3].[Ru+3].[Ru+4] [ruthenium red]
DASPMI fluorescence loss rate ([2]; 10 nM ruthenium red for 10 minutes prior to MPT induction with ionomycin (5 μM), control and AD cybrid cell lines, FIG. 3): significantly greater in cybrid cells that have not been treated with ruthenium red
